Each block holds one compound with its values, some of them ahead of it.
Columns and labels:
[1] = target: T1, α1β2γ2 GABAARs (rat α1, rat β2 and human γ2S) (UniProt P18507+P62813+P63138); experiment: Two-electrode voltage clamp of α1β2γ2 GABAAR-expressing Xenopus oocytes; type: cell-based; conditions: for potentiation of the GABA response: co-applied 3 μM GABA, MPC088 1 μM, MPD021 10 or 100 μM, MPC100 10 μM; for electrophysiological activity of propofol analogs (FIG. 59), words: Xenopus oocyte expression system
T1 construct: expressed in transfected cells; host or cells: Xenopus laevis oocytes
Text: Purple and gray bars indicate periods of presentation of UV light (purple) and high-intensity visible light (High-Vis) (gray), respectively. […] These amplitude determination conditions are denoted by numbers beneath the waveform in FIG. 35d.
In each of the MPC088 experiments, the cis-dominant form was generated by UV light during static bathing. […] Numbers beneath the waveform in FIG. 2(c) denote amplitude determination conditions for that experiment.
(§1) Oocytes expressing α1β2γ2 receptors (rat α1, rat β2 and human γ2S) were prepared and studied by two-electrode voltage-clamp recording^58 (holding potential: −70 mV; amplifier: GeneClamp500B; Axon Instruments, Foster City, Calif.). Unless otherwise indicated, oocytes were superfused with Ringer solution (physiological saline) at a rate of ˜1 mL/min. The experiments of FIGS. 35d-e, 36c-e and 47 involved periods of static bathing, i.e., halted superfusion. The γ2(A79C) subunit was prepared by site-directed mutagenesis. Oocyte electrophysiological experiments were carried out in room light. A UV light-emitting diode (peak wavelength: 365 nm; Hamamatsu Photonics, Japan) and a microscope illuminator (white light; Schott Fostec, Auburn, N.Y.) provided UV and visible stimulating light. As measured at the position of the oocyte, the intensity of the UV light at 365 nm was 220 μW/mm^2. At 440 nm, the nominal strength of the visible (white) light (referred to as high-intensity visible light) was 28 μW/mm^2, and that of the ambient room illumination was 0.045 μW/mm^2. In all experiments, low-intensity visible light from the microscope illuminator (3 μW/mm^2 at 440 nm) was present at all times except those involving high-intensity visible illumination. Electrophysiological data were obtained using Clampex 8.2 (Axon Instruments), analyzed using Clampfit 10.0 (Axon Instruments) and OriginPro7.5 (OriginLab, Northampton, Mass.). All statistical analysis employed a two-sample t-test.

[2] = target: T2, α1β2γ2(A79C) GABAARs (γ-79C) (UniProt P18507+P62813+P63138, A118C); experiment: Tethering to γ-79C GABAAR-expressing oocytes, voltage clamp; type: cell-based, rat, human
T2 construct: expressed in transfected cells; host or cells: Xenopus laevis oocytes
Procedure: as §1, with “μW/mm^2.” for “μW/mm^2. In all experiments, low-intensity visible light from the microscope illuminator (3 μW/mm^2 at 440 nm) was present at all times except those involving high-intensity visible illumination. Electrophysiological data were obtained using Clampex 8.2 (Axon Instruments), analyzed using Clampfit 10.0 (Axon Instruments) and OriginPro7.5 (OriginLab, Northampton, Mass.). All statistical analysis employed a two-sample t-test.”

GABAA receptors = experiment: Two-electrode voltage clamp of GABAA-expressing Xenopus oocytes; type: cell-based; conditions: for Hill coefficient n: Hill fit of normalized peak amplitudes; for EC50: Hill fit of peak amplitudes normalized to saturating muscimol response
Text: (§2) Muscimol-biotin was synthesized wherein biotinamidoeaproic acid N-hydroxysuccinimide ester was reacted with muscimol in N-methylpyrrolidinone in the presence of diisopropylethylamine. The product was purified to homogeneity by reversed-phase HPLC. Peaks were detected by absorbance at 210 nm (FIG. 5), collected, and lyophilized to afford muscimol-biotin. The muscimol-biotin product was judged to be 97% pure by ^IH NMR spectroscopy, with no detectable contamination of the HPLC-purified product peak by muscimol (limit of detection: ca. 1%). Muscimol-biotin was dissolved in DMSO, stored at 3° C., and diluted to desired concentrations in frog Ringer before testing on the oocyte. Electrophysiology procedures used for Xenopus oocyte preparation, including GABAc expression, followed those described previously (Qian et al., 1998). Membrane currents were recorded from GABAc-expressing oocytes by 2-electrode voltage clamp apparatus. FIGS. 6-7 show results obtained for muscimol-biotin in GABAc and GABAA expressing oocytes.
(§3) FIGS. 6 and 7 show the effects of muscimol-biotin on GABAc- and GABAA expressing Xenopus oocytes. […] Right (FIG. 7): GABAA receptors. […] (B) Responses of another oocyte to 2.5 μM muscimol-biotin alone, and to co-application of 2.5 μM muscimol-biotin and 100 μM bicuculline. (C) Family of responses to varying concentrations of muscimol-biotin and to a single, saturating concentration of muscimol (200 μM thick trace) recorded from a single oocyte. (D) Normalized peak amplitudes (mean±SEM) of responses recorded from GABAA-expressing oocytes upon the application of muscimol (open circles) and muscimol-biotin (filled circles) (n=9).

GABAc receptors = target: T3, GABAc receptors (Homo sapiens, UniProt P24046); experiment: Two-electrode voltage clamp of GABAc-expressing Xenopus oocytes; type: cell-based; conditions: for Hill coefficient n: Hill fit of normalized peak amplitudes; for EC50: Hill fit of peak amplitudes normalized to saturating muscimol response
T3 construct: expressed in transfected cells; host or cells: Xenopus oocytes
Text: as §2, §3

[3] = tested on: GABAARs of retinal ganglion cells; experiment: Whole-cell patch clamp of isolated retinal ganglion cells; type: cell-based, rat; conditions: co-applied 100 μM PTX
Procedure: To test whether native neuronal GABAARs respond to MPC088, retinal ganglion cells (RGCs), a cell type known to abundantly express GABAARs (Ishida et al. (1988); Fischer et al. (1998); Wässle et al. (1998); Rotolo et al. (2003)), were examined. […] The cis-dominant preparation was obtained by pre-treating trans-dominant MPC088 with UV light for 5 min.
Inset: Aggregate data for direct activation by MPC088.
Experiments were conducted on enzymatically dissociated ganglion cells obtained from adult Sprague-Dawley rats (male and female, 6-16 weeks of age) (Charles River Laboratories, Wilmington, Mass.). Procedures for euthanasia, isolation of the retina, and the dissociation of retinal cells were as described previously (Ramsey et al. (2007) except that the period of retinal cell dissociation was shortened from 40 min to 20 min. Isolated ganglion cells were identified on the basis of their morphological appearance and the presence of a large voltage-gated sodium current. Whole-cell patch-clamp techniques similar to those described (Ramsey et al. (2007)) were used to record membrane current responses to test agents. The patch pipette with a resistance of 8-12 MΩ was pulled in two stages using a micro-electrode puller (Model PP830, Narishige Group, Tokyo, Japan). The pipette was filled with an intracellular solution containing 95 mM CsCH3SO3, 20 mM TEA-Cl, 10 mM glutamic acid, 1 mM BAPTA, 10 mM HEPES, 8 mM phosphocreatine di(tris), 1 mM MgATP and 0.2 mM Na2GTP; pH adjusted to 7.2 with CsOH. Cells were clamped at 0 mV (Axopatch 200B amplifier; Axon Instruments), and experimental runs were controlled by pCLAMP system software (Axon Instruments). Electrophysiological data were obtained in response to test compounds dissolved in physiological saline (Ringer solution) that consisted of 135 mM NaCl, 5 mM KCl, 2 mM CaCl2, 2 mM MgCl2, 10 mM glucose, and 5 mM HEPES, pH 7.4. Supplementation of aqueous test solutions with MPC088 was carried out by adding an aliquot of a stock solution containing the compound dissolved in dimethyl sulfoxide (DMSO). In all experiments, the amount of carrier DMSO present in the applied test solution was <1% (v/v). Test solutions were delivered from separate reservoirs by a multi-channel perfusion system. The same UV-LED used in the oocyte experiments was used for UV illumination of MPC088-supplemented test solutions. For preparation of cis-dominant MPC088, the test solution of initially trans-dominant compound underwent a 5-min UV illumination prior to its placement in the perfusion reservoir. All preparative procedures were performed in the dark, and the reservoirs and perfusion lines were light-protected with aluminum foil. As in the oocyte experiments, data were analyzed with Clampfit and plotted with Origin. Unless otherwise stated, numerical data from replicate experiments are presented as mean±SD, and all statistical analyses of data obtained from oocytes and from retinal ganglion cells employed a two-sample t-test.

T3 sequence (P24046 22-479): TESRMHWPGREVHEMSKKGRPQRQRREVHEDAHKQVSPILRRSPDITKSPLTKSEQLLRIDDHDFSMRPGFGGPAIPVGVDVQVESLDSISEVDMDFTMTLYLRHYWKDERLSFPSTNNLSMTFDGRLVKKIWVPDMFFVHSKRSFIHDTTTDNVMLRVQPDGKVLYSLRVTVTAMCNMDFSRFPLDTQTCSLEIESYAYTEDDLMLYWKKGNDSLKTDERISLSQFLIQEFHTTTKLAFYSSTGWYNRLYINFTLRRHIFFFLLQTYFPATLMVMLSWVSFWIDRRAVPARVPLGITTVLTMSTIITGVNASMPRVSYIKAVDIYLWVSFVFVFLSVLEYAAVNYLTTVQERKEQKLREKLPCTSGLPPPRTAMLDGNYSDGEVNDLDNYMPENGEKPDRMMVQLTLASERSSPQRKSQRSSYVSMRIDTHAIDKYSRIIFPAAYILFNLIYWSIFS
T2 sequence (P62813 28-455): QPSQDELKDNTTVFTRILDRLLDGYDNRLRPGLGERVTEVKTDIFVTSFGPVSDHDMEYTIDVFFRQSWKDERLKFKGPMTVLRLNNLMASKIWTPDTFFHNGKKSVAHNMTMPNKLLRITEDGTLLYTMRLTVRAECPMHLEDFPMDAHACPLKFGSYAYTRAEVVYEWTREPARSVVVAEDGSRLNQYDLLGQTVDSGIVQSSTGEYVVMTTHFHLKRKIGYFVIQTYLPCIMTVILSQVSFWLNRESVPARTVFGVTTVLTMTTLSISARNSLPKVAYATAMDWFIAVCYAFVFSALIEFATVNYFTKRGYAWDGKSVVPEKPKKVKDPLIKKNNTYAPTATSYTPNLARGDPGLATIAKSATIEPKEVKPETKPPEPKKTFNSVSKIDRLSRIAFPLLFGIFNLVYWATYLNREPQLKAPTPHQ
T2 sequence (P63138 25-474 limits assumed): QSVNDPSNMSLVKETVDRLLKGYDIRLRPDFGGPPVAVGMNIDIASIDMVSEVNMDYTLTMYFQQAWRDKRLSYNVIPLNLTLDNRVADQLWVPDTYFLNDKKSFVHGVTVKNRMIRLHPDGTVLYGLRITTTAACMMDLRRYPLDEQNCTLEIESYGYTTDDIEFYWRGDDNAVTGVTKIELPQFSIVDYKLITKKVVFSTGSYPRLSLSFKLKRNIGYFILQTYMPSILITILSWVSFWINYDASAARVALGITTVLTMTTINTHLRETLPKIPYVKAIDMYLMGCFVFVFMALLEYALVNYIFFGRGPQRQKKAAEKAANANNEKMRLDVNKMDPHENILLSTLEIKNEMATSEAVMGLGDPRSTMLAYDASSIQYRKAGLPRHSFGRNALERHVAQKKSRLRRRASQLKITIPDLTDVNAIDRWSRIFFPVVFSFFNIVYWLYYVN
T2 sequence (P18507 40-467 isoform P18507-1 A118C limits assumed): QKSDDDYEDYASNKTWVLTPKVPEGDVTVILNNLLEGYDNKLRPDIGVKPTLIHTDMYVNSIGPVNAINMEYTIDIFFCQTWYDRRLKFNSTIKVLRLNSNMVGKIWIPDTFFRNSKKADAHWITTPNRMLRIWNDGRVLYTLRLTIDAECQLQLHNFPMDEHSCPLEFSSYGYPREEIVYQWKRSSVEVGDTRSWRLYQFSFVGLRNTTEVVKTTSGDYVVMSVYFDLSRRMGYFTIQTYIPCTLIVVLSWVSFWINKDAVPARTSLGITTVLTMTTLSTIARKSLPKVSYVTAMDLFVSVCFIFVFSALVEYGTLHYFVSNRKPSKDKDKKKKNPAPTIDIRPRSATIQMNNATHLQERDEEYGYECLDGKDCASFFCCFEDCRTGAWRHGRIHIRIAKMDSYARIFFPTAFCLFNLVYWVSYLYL
T1 sequence (P62813 28-455): as the sequence (P62813 28-455) above
T1 sequence (P63138 25-474 limits assumed): as the sequence (P63138 25-474 limits assumed) above
T1 sequence (P18507 40-467 isoform P18507-1 limits assumed): as the sequence (P18507 40-467 isoform P18507-1 A118C limits assumed) above, with C79A counted along it

direct activation of wildtype receptors ([1]; 10 μM, no GABA): negligible
response to GABA after MPC100 treatment and Ringer perfusion ([1]; wildtype receptors, 100 μM, 7 min): not significantly enhanced
ratio of 3 μM GABA response amplitudes post- vs. pre-MPC100 treatment ([2]; 100 μM MPC100, 10 min, after methyl-(PEG)11-maleimide pre-treatment): 1.1±0.1
Compound: CC(C)c1cc(CCCC(=O)NCc2ccc(/N=N/c3ccc(C(=O)NCCNC(=O)CCOCCOCCOCCOCCOCCOCCOCCOCCOCCOCCOCCOCCOCCOCCOCCOCCOCCOCCOCCOCCOCCOCCOCCOCCNC(=O)CCN4C(=O)C=CC4=O)cc3)cc2)cc(C(C)C)c1O [MPC100, (E)-N-(82-(2,5-Dioxo-2,5-dihydro-1H-pyrrol-1-yl)-4,80-dioxo-7,10,13,16,19,22,25,28,31,34,37,40,43,46,49,52,55,58,61,64,67,70,73,76-tetracosaoxa-3,79-diazadooctacontyl)-4-((4-((4-(4-hydroxy-3,5-diisopropylphenyl)butanamido)methyl)phenyl)diazenyl)benzamide]
potentiation of the GABA response [1]: smaller than that produced by equimolar trans-dominant MPC088
potentiation after incubation and washout ([2]; 100 μM, ~5-7 min, then Ringer superfusion): persistent potentiation of the GABA response
effect of tethering on potentiating action of diazepam ([2]; data not shown): eliminated the potentiating action of diazepam

response amplitude relative to the 3 μM GABA response ([1]; 3 μM GABA + 10 μM compound): 1.03±0.07
response amplitude relative to the 3 μM GABA response ([1]; 3 μM GABA + 100 μM compound): 1.03±0.11
potentiation of the GABA response [1]: no potentiation of the GABA response
Compound: CCCC(=O)NCc1ccc(/N=N/c2ccc(C(=O)NCCN)cc2)cc1 [MPD021, (E)-N-(2-Aminoethyl)-4-((4-(butyramidomethyl)phenyl)diazenyl)benzamide]

Compound: CC(C)c1cc(CCCC(=O)O)cc(C(C)C)c1O [compound 8]
electrophysiological activity of propofol analogs (FIG. 59), words [1]: poor activity

Compound: COC(=O)c1ccc(/N=N/c2ccc(CNC(=O)CCCc3cc(C(C)C)c(O)c(C(C)C)c3)cc2)cc1 [compound 9]
electrophysiological activity of propofol analogs (FIG. 59), words [1]: poor activity

electrophysiological activity of propofol analogs (FIG. 59), words [1]: active
Compound: CC(C)c1cc(CCCC(=O)Oc2ccc(/N=N/c3ccccc3)cc2)cc(C(C)C)c1O [compound 14, (E)-4-(phenyldiazenyl) phenyl 4-(4-hydroxy-3,5-diisopropylphenyl) butanoate]

electrophysiological activity of propofol analogs (FIG. 59), words [1]: strong GABAAR potentiation
Compound: CC(C)c1cc(CCCC(=O)NCc2ccc(/N=N/c3ccc(C(=O)O)cc3)cc2)cc(C(C)C)c1O [compound 18, (E)-4-((4-((4-(4-hydroxy-3,5-diisopropylphenyl)butanamido)methyl)phenyl)diazenyl) benzoic acid]

Compound: NCc1cc(=O)[nH]o1 [muscimol, reference compound]
Hill coefficient n (GABAA receptors): 0.74
EC50 (GABAA receptors): 4.8 µM
Hill coefficient n (GABAc receptors): 1.2
EC50 (GABAc receptors): 2 µM

Compound: O=C(CCCC[C@@H]1SC[C@@H]2NC(=O)N[C@@H]21)NCCCCCC(=O)NCc1cc(O)no1 [muscimol-biotin]
Hill coefficient n (GABAA receptors): 1.4
EC50 (GABAA receptors): 385 µM
Hill coefficient n (GABAc receptors): 4.4
EC50 (GABAc receptors): 20 µM

Compound: (E)-N-(2-Aminoethyl)-4-((4-((4-(4-hydroxy-3,5-diisopropylphenyl)butanamido)methyl)phenyl)diazenyl)benzamide [MPC088]
electrophysiological activity of propofol analogs (FIG. 59), words [1]: strong GABAAR potentiation

Compound: methyl-(PEG)11-maleimide [reference compound]
persistent increase in the 3 μM GABA response ([2]; 1 mM, 10-min treatment): 71±25%

Compound: picrotoxin [reference compound]
reduction of the response to 2 μM GABA+10 μM trans-dominant MPC088 [3]: 94±1%
reduction of the response to 60 μM trans-dominant MPC088 alone [3]: 95±2%
effect of antagonist on the MPC088-elicited response ([1]; picrotoxin 100 μg, gabazine 30 μg, bicuculline 100 μM (so in the source)): eliminated
reduction of baseline current ([2]; PTX applied to cells treated with 100 μM MPC100 and washed): 85±7%

Source: US9399145B2, “Nanoscale neuromodulating platform for retina neuron activation apparatus and method” (The Board of Trustees of the University of Illinois, priority 2005, dated 2016)
